Source: US12403090B2, “Oral film compositions and dosage forms having precise active dissolution profiles” (Aquestive Therapeutics, Inc., priority 2018, dated 2025)

Experiment: Solubility of clobazam in COSF liquid mix and oral films
Type: physicochemical
Details: API or films in 1.5 ml water; wet mass as such
Description: An experiment was conducted to assess the solubility of clobazam in the liquid mix (pre-drying) and oral films (COSF). Oral thin films containing 10 mg and 20 mg clobazam were prepared and then dissolved in 1.5 ml water. Two other samples were evaluated—one being the active in water (without the excipients added to the composition for oral films); and second being the liquid mix for the film but tested prior to film forming (i.e., drying).

## CN1C(=O)CC(=O)N(c2ccccc2)c2cc(Cl)ccc21 [COSF API 10 mg, clobazam]
  % Clobazam Dissolved in sample: 1.576%
  Actual Clobazam (mg/ml) in supernatant: 0.11 mg/mL
